Data set [1] in a line: Selectivity index, ratio of IC50 for human MRC5 cells to IC50 for chloroquine/mefloquine-resistant Plasmodium falciparum SRIV35. It counts as toxicity, cell-based. To be noted: read-out: Ratio IC50.
Data set [2] can be described thus: Cytotoxicity against human MOLT3 cells by XTT assay. To be noted: MOLT-3. The class given is functional, cell-based. A general note: Tetrazolium assays rely on reduction of a dye to a coloured formazan, in cell work by metabolically active cells.
The test system of another data set is A549. Put plainly: Cytotoxicity against human A549 cells by MTT assay. The class given is functional, cell-based.
Data set [3] is described as follows: Selectivity index, ratio of IC50 for human MRC5 cells to IC50 for chloroquine/mefloquine-resistant Plasmodium falciparum SKF58. To be noted: read-out: Ratio IC50. The class given is toxicity, cell-based.
The nature of data set [4]: Cytotoxicity against human HuCCa1 cells by MTT assay. The class given is functional, cell-based. To be noted: HuCC-A1.
A further data set concerns HepG2. The data set is described as follows: Cytotoxicity against human HepG2 cells by MTT assay. The class given is functional, cell-based.
Data set [5] has as its system Plasmodium falciparum. Put plainly: microbe, parasite or virus in culture. To be noted: SRIV35.
The subject of data set [6] is Plasmodium falciparum. Put plainly: microbe, parasite or virus in culture. To be noted: SKF58.
The next data set relates to MRC5. The data set is described as follows: Cytotoxicity against human MRC5 cells by MTT assay. It counts as cell-based.
Data set [7] concerns Plasmodium falciparum. The data set is described as follows: microbe, parasite or virus in culture. To be noted: 3D7.
Description: Antiplasmodial activity against chloroquine-sensitive Plasmodium falciparum 3D7
Data set [8] can be described thus: Selectivity index, ratio of IC50 for human MRC5 cells to IC50 for […]. The class given is toxicity, cell-based. To be noted: read-out: Ratio IC50.
Data set [9] is described as follows: Selectivity index, ratio of IC50 for human MRC5 cells to IC50 for human HuCCa1 cells. It counts as functional.
In data set [10] the test system is Plasmodium falciparum. Put plainly: microbe, parasite or virus in culture. To be noted: K1.
Description: Antiplasmodial activity against chloroquine-resistant Plasmodium falciparum K1
A short description of data set [11]: Selectivity index, ratio of IC50 for human MRC5 cells to IC50 for chloroquine-resistant Plasmodium falciparum K1. It counts as toxicity, cell-based. To be noted: read-out: Ratio IC50.

The values that follow come from ChEMBL document CHEMBL3414562, “Synthesis of isocryptolepine analogues and their structure-activity relationship studies as antiplasmodial and antiproliferative agents” (Eur J Med Chem, 2015).

Regarding `Cn1cc2c3ccccc3nc-2c2cc(Cl)ccc21`, the selectivity ratio came to 48 in data set [1], 45.7 in [3], 47.1 in [8] and 32.5 in [11]. For the same compound, the IC50 (as a rule, the concentration at which inhibition is half-maximal) in [2] is 520 nM; with A549, 1500 nM; in data set [4] it was 6450 nM; in the data set on HepG2 it was 640 nM; with Plasmodium falciparum [5], 217 nM; in the data set on Plasmodium falciparum [6], 228 nM. For the same compound, the half-inhibitory concentration (IC50) was 10400 nM in the data set on MRC5, 221 nM in the data set with Plasmodium falciparum [7] and 321 nM with Plasmodium falciparum [10]. For the same compound, in data set [9], the “Ratio IC50” value amounted to 1.62.

With `COc1cc([C@@H]2c3cc4c(cc3[C@@H](O[C@@H]3O[C@@H]5CO[C@@H](C)O[C@H]5[C@H](O)[C@H]3O)[C@H]3COC(=O)[C@H]23)OCO4)cc(OC)c1O` [ETOPOSIDE], the IC50 in data set [2] amounted to 110 nM; in the data set with HepG2, 40500 nM.

Consider `Cn1cc2c3cc(Br)ccc3nc-2c2cccc(F)c21`, for which the selectivity ratio in data set [1] was 65.2; in [3], 63; in [8], 86.1; in data set [11], 51.8. Further, the IC50 in [2] came to 1090 nM; with A549, 6170 nM; in [4], 4480 nM; in the data set on HepG2 it was 3220 nM; with Plasmodium falciparum [5], 235 nM; in the data set with Plasmodium falciparum [6], 243 nM. Also, the IC50 was 15300 nM in the data set on MRC5, 178 nM with Plasmodium falciparum [7] and 296 nM in the data set on Plasmodium falciparum [10]. Also, the “Ratio IC50” value in data set [9] is listed as 3.42.

On to `Cn1cc2c3cc(Br)ccc3nc-2c2cc(F)ccc21`, for which the selectivity ratio in data set [1] was determined as 577; in data set [3], 921; in data set [8], 1020; in data set [11], 650. Also, the half-maximal inhibitory concentration (IC50) was determined as 880 nM in [2]; 13200 nM in the data set on A549; 15000 nM in data set [4]; 3650 nM with HepG2; 211 nM with Plasmodium falciparum [5]; 132 nM in the data set on Plasmodium falciparum [6]. The IC50 in the data set on MRC5 came to 122000 nM; in the data set with Plasmodium falciparum [7], 119 nM; with Plasmodium falciparum [10] it was 188 nM. Moreover, the “Ratio IC50” value in data set [9] is recorded as 8.14.

On to `Cc1cc(Br)cc2c3cn(C)c4ccc(Cl)cc4c-3nc12`, for which the selectivity ratio in [1] is 63.2; in data set [3] it was 59.2; in data set [8], 57.7; in [11] it was 37.8. The IC50 in data set [2] amounted to 1170 nM; in the data set with A549 it was 2340 nM; in data set [4], 6150 nM; in the data set with HepG2, 1390 nM; in the data set with Plasmodium falciparum [5] it was 86.7 nM; with Plasmodium falciparum [6], 92.6 nM. For the same compound, the values for the IC50 in the data set with MRC5, in the data set with Plasmodium falciparum [7] and in the data set on Plasmodium falciparum [10] were 5430 nM, 95 nM and 145 nM, respectively. The “Ratio IC50” value in data set [9] worked out at 0.89.

In the case of `Cn1cc2c3cc(Br)ccc3nc-2c2ccc(F)cc21`, the selectivity ratio in data set [1] turned out to be 317; in data set [3], 284; in [8], 693; in data set [11], 425. For the same compound, the IC50 in data set [2] amounted to 1260 nM; with A549, 7970 nM; in [4], 10200 nM; with HepG2, 7410 nM; with Plasmodium falciparum [5], 83 nM; in the data set with Plasmodium falciparum [6], 92.4 nM. For the same compound, the figures for the IC50 in the data set on MRC5, with Plasmodium falciparum [7] and in the data set on Plasmodium falciparum [10] were 26300 nM, 37.9 nM and 61.8 nM, respectively. In data set [9], the “Ratio IC50” value stood at 2.58.

Turning to `Cn1cc2c3cc(F)ccc3nc-2c2cc(Cl)ccc21`, the selectivity ratio was found to be 22.9 in data set [1], 22.8 in [3], 24.4 in data set [8] and 14.1 in data set [11]. Further, the IC50 in data set [2] was 740 nM; in the data set with A549 it was 7900 nM; in [4], 9480 nM; in the data set on HepG2 it was 810 nM; in the data set with Plasmodium falciparum [5], 176 nM; in the data set with Plasmodium falciparum [6], 177 nM. In addition, the half-inhibitory concentration (IC50) is 4040 nM with MRC5, 166 nM with Plasmodium falciparum [7] and 288 nM in the data set with Plasmodium falciparum [10]. For the same compound, the “Ratio IC50” value in data set [9] is on record as 0.43.

With `Cn1cc2c3ccc4ccccc4c3nc-2c2cc(Cl)ccc21`, the selectivity ratio in [1] is 36.3; in data set [3] it was 34.3; in data set [8] it was 33.6; in data set [11], 24.1. For the same compound, the IC50 was 1550 nM in data set [2]; 1200 nM in the data set with A549; 1550 nM in [4]; 760 nM with HepG2; 126 nM in the data set on Plasmodium falciparum [5]; 134 nM in the data set with Plasmodium falciparum [6]. Also, the IC50 came to 2620 nM in the data set on MRC5, 136 nM in the data set on Plasmodium falciparum [7] and 190 nM in the data set with Plasmodium falciparum [10]. Also, in [9], the “Ratio IC50” value was 2.96.

With `C[C@H]1[C@H](OC(=O)CCC(=O)O)O[C@@H]2O[C@@]3(C)CC[C@H]4[C@H](C)CC[C@@H]1[C@@]24OO3` [ARTESUNATE], the IC50 in the data set with Plasmodium falciparum [5] amounted to 4.1 nM; in the data set on Plasmodium falciparum [6] it was 10 nM; with Plasmodium falciparum [7] it was 4.2 nM; in the data set with Plasmodium falciparum [10] it was 3.5 nM.

On to `OC(c1cc(C(F)(F)F)nc2c(C(F)(F)F)cccc12)C1CCCCN1` (stereo not drawn) [MEFLOQUINE], for which the IC50 in the data set on Plasmodium falciparum [5] amounted to 65 nM.

`C=C[C@H]1CN2CC[C@H]1C[C@H]2[C@H](O)c1ccnc2ccc(OC)cc12` [QUININE]: the IC50 was 431 nM in the data set with Plasmodium falciparum [5], 199 nM in the data set on Plasmodium falciparum [6], 80 nM in the data set with Plasmodium falciparum [7] and 113 nM in the data set with Plasmodium falciparum [10].

With `Cn1cc2c3cc(Br)ccc3nc-2c2cccc(Cl)c21`, the IC50 is 780 nM in data set [2]; 5500 nM in the data set on A549; 4920 nM in data set [4]; 2550 nM with HepG2; above 2000 nM in the data set with Plasmodium falciparum [5]; above 2000 nM in the data set on Plasmodium falciparum [6]. Moreover, the IC50 in the data set with MRC5 was 3150 nM; in the data set with Plasmodium falciparum [7], above 2000 nM; in the data set on Plasmodium falciparum [10] it was above 2000 nM. In [9], the “Ratio IC50” value is reported as 0.64.

As to `COc1ccc2nc3c4cc(Cl)ccc4n(C)cc-3c2c1`, the selectivity ratio was found to be 13.7 in data set [1], 13.8 in data set [3], 13.5 in data set [8] and 7.52 in [11]. In addition, the IC50 in data set [2] was determined as 2900 nM; in the data set on A549, 6980 nM; in data set [4], 10400 nM; with HepG2, 2190 nM; in the data set on Plasmodium falciparum [5], 209 nM; in the data set with Plasmodium falciparum [6], 207 nM. Besides, the IC50 in the data set with MRC5 amounted to 3100 nM; with Plasmodium falciparum [7], 211 nM; with Plasmodium falciparum [10], 380 nM. Besides, the “Ratio IC50” value in [9] came to 0.28.

As to `Cn1cc2c3cc(Cl)ccc3nc-2c2cc(Cl)ccc21`, the selectivity ratio in data set [1] was 162; in data set [3] it was 194; in data set [8] it was 146; in [11] it was 110. For the same compound, the IC50 in data set [2] was 930 nM; in the data set with A549 it was 30200 nM; in [4], 13200 nM; in the data set with HepG2 it was 7900 nM; in the data set on Plasmodium falciparum [5], 156 nM; in the data set on Plasmodium falciparum [6], 130 nM. For the same compound, the IC50 stood at 25200 nM in the data set with MRC5, 172 nM with Plasmodium falciparum [7] and 228 nM in the data set with Plasmodium falciparum [10]. Also, the “Ratio IC50” value in data set [9] amounted to 1.9.

`Cn1cc2c3cc(Br)ccc3nc-2c2cc(OC(F)(F)F)ccc21`: the selectivity ratio in data set [1] stood at 804; in data set [3], 799; in [8], 1500; in data set [11], 1280. For the same compound, the IC50 in [2] came to 2600 nM; with A549 it was 8460 nM; in data set [4], 7010 nM; in the data set on HepG2 it was 8200 nM; with Plasmodium falciparum [5], 108 nM; in the data set on Plasmodium falciparum [6], 108 nM. Also, the figures for the IC50 in the data set on MRC5, with Plasmodium falciparum [7] and with Plasmodium falciparum [10] were 86600 nM, 57.7 nM and 67.9 nM, respectively. Further, in data set [9], the “Ratio IC50” value turned out to be 12.36.

With `Cn1cc2c3ccccc3nc-2c2cccc(Cl)c21`, the IC50 in [2] was 1270 nM; with A549 it was 8590 nM; in data set [4], 21000 nM; in the data set with HepG2 it was 2620 nM; with Plasmodium falciparum [5], above 2000 nM; with Plasmodium falciparum [6], above 2000 nM. Further, the IC50 was 12400 nM in the data set on MRC5, above 2000 nM with Plasmodium falciparum [7] and above 2000 nM in the data set with Plasmodium falciparum [10]. The “Ratio IC50” value in data set [9] amounted to 0.59.

As to `Cn1cc2c3ccccc3nc-2c2ccccc21` [ISOCRYPTOLEPINE], the selectivity ratio stood at 18 in [1], 20.4 in [3], 14.3 in data set [8] and 10.7 in [11]. The IC50 came out at 730 nM in data set [2]; 1210 nM in the data set on A549; 1810 nM in [4]; 730 nM in the data set with HepG2; 463 nM with Plasmodium falciparum [5]; 410 nM with Plasmodium falciparum [6]. Further, the values for the IC50 in the data set with MRC5 and in the data set on Plasmodium falciparum [7] were 8350 nM and 585 nM, respectively. Also, the “Ratio IC50” value in [9] came out at 4.62.

`Cn1cc2c3cc(Br)ccc3nc-2c2cc(F)cc(Cl)c21`: the IC50 was 35900 nM with A549; 8000 nM in data set [4]; 3470 nM in the data set with HepG2; above 2000 nM in the data set with Plasmodium falciparum [5]; above 2000 nM in the data set on Plasmodium falciparum [6]; 108000 nM in the data set on MRC5. Also, the IC50 in the data set with Plasmodium falciparum [7] and in the data set on Plasmodium falciparum [10] was above 2000 nM in each case. Further, the “Ratio IC50” value in [9] is reported as 13.5.
